Measurements reported in ChEMBL document CHEMBL6109121, “Discovery of Novel Sulfonylurea NLRP3 Inflammasome Inhibitor for the Treatment of Multiple Inflammatory Diseases” (J Med Chem, 2025).
The source made the active and inactive calls. The calls are words filed in the database; no cut-off is given here.

Tests used:
[1] = Inhibition of NLRP3 inflammasome activation in LPS/ATP-stimulated male C57BL/6J mouse BMDM cells assessed as inhibition of IL-1beta secretion […] for 4 hrs followed by compound administration for 30 mins and measured after 1 hrs of ATP addition by ELISA; assay type: cell-based
[2] = Cytotoxicity against male C57BL/6J mouse BMDM cells; assay type: functional
Mus musculus [3] = test: Anti-colitis activity in DSS-induced acute ulcerative colitis male C57BL/6J mouse model assessed as improvement in stool consistency at 5 mg/kg, po preadministered with DSS for 7 days followed by 3 days of drinking water and measured after 10 days of compound administration; assay type: functional, organism-based; settings: time 10.0 day
Mus musculus [4] = test: Anti-colitis activity in DSS-induced acute ulcerative colitis male C57BL/6J mouse model assessed as decrease in disease activity index score at 5 mg/kg, po preadministered with DSS for 7 days followed by 3 days of drinking water and measured after 10 days of compound administration; assay type: functional, organism-based; settings: time 10.0 day
Mus musculus [5] = test: Anti-colitis activity in DSS-induced acute ulcerative colitis male C57BL/6J mouse model assessed as reduction in fecal bleeding at 5 mg/kg, po preadministered with DSS for 7 days followed by 3 days of drinking water and measured after 10 days of compound administration; assay type: functional, organism-based; settings: time 10.0 day
Mus musculus [6] = test: Antidiabetic activity in HFD-fed STZ-induced diabetic kidney disease male C57BL/6J mouse model assessed as reduction in macrophage infiltration in kidney at 20 mg/kg fed with high fat diet for 4 weeks followed by STZ administration for 5 days and measured 6 weeks post compound administration via gavage by F4/80 immunostaining based analysis; assay type: functional, organism-based
Mus musculus [7] = test: Antidiabetic activity in HFD-fed STZ-induced diabetic kidney disease male C57BL/6J mouse model assessed as improvement of glucose tolerance at 20 mg/kg fed with high fat diet for 4 weeks followed by STZ administration for 5 days further administered with compound via gavage for 6 weeks and measured after 120 mins of glucose administration by OGTT; assay type: functional, organism-based; settings: time 60600.0 min
Mus musculus [8] = test: Effect on TNF-alpha level in serum of LPS/ATP-induced acute peritonitis male C57BL/6J mouse model at 20 mg/kg, po preadministered with compound for 1 hrs followed by LPS addition for 2 hrs and measured 12 hrs post ATP administration by ELISA; assay type: functional, organism-based; settings: time 13.0 hrs
[9] = Inhibition of NLRP3 inflammasome activation in human THP-1 cells assessed as inhibition of IL-1beta release; assay type: cell-based
[10] = target: NACHT, LRR and PYD domains-containing protein 3 (Mus musculus) (UniProt Q8R4B8); settings: C57BL/6J, dose 20.0 mg/kg, route po, time 13.0 hrs
Chain of NACHT, LRR and PYD domains-containing protein 3 (Mus musculus) (Q8R4B8 whole entry, the tested form may be a part): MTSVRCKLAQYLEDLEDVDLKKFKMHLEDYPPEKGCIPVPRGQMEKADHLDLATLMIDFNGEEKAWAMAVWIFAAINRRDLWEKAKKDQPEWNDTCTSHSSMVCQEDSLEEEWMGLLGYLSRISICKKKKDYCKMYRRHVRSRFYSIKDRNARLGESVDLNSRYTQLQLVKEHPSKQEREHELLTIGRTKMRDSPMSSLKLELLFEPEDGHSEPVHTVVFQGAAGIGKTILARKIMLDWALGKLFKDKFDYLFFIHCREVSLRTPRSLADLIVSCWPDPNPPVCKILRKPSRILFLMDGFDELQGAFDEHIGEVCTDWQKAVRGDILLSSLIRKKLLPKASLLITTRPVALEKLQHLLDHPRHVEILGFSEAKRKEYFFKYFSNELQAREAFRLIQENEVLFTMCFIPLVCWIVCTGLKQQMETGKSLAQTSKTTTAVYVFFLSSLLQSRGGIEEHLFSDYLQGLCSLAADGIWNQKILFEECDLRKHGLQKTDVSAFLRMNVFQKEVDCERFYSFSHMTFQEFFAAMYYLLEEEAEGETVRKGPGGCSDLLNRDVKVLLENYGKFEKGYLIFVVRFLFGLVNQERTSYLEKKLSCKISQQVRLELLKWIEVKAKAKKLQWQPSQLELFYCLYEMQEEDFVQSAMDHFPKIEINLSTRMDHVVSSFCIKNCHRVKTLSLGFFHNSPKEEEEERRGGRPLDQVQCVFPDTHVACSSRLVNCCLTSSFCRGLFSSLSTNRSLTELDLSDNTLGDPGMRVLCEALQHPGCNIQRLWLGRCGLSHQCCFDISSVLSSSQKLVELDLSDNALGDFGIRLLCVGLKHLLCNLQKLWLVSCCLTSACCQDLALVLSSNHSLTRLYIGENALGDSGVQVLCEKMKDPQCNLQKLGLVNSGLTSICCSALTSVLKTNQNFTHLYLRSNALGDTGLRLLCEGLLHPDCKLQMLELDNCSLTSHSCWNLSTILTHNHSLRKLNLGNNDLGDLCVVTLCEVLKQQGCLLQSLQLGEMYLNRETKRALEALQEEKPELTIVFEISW

Mus musculus [11] = test: Anti-colitis activity in DSS-induced acute ulcerative colitis male C57BL/6J mouse model assessed as reduction in body weight loss at 5 mg/kg, po preadministered with DSS for 7 days followed by 3 days of drinking water and measured after 10 days of compound administration; assay type: functional, organism-based; settings: time 10.0 day
Mus musculus [12] = test: Anti-colitis activity in DSS-induced acute ulcerative colitis male C57BL/6J mouse model assessed as increase in colon length at 5 mg/kg, po preadministered with DSS for 7 days followed by 3 days of drinking water and measured after 10 days of compound administration; assay type: functional, organism-based; settings: time 10.0 day

Structure (SMILES)	IC50 [1] [µM]	CC50 [2] [µM]	also measured
O=C(Nc1c2c(cc3c1CCC3)CCC2)NS(=O)(=O)NC1CCN(C2CC2)CC1	1.95	> 100	–
CN1CCC(N(C)S(=O)(=O)NC(=O)Nc2ccc3c(c2)Cc2ccccc2-3)CC1	> 50	> 100	–
CC(C)(O)c1coc(S(=O)(=O)NC(=O)Nc2c3c(cc4c2CCC4)CCC3)c1	0.036	–	Activity (Mus musculus [3]): Active; Activity (Mus musculus [4]): Active; Activity (Mus musculus [5]): Active; Activity (Mus musculus [6]): inactive; Activity (Mus musculus [7]): inactive; Activity (Mus musculus [8]): inactive; IC50 [9]: 0.058 µM; inhibition [10]: Active; Activity (Mus musculus [11]): Active; Significant Difference Not Observed; Activity (Mus musculus [12]): inactive
CC(C)(O)c1coc(S(=O)(=O)NC(=O)Nc2ccccc2C(=O)c2ccoc2)c1	> 50	> 100	–
CN(C1CCN(Cc2ccccc2)CC1)S(=O)(=O)NC(=O)Nc1c2c(cc3c1CCC3)CCC2	> 50	> 100	–
CN(C)C(=O)c1ccccc1NC(=O)NS(=O)(=O)c1cc(C(C)(C)O)co1	> 50	> 100	–
CC(C)(O)c1coc(S(=O)(=O)NC(=O)Nc2ccccc2C(=O)N2CCCC2)c1	19.1	> 100	–
O=C(Nc1c2c(cc3c1CCC3)CCC2)NS(=O)(=O)N1CCc2ccccc2C1	0.317	> 100	–
Cn1cc(NS(=O)(=O)NC(=O)Nc2c3c(cc4c2CCC4)CCC3)cn1	0.155	> 100	–
CC(C)(O)c1coc(S(=O)(=O)NC(=O)Nc2ccccc2C(=O)c2ccccc2)c1	3.82	> 100	–
CC(C)N1CCC(NS(=O)(=O)NC(=O)Nc2c3c(cc4c2CCC4)CCC3)CC1	2.9	> 100	–
CCN1CCC(N(C)S(=O)(=O)NC(=O)Nc2c3c(cc4c2CCC4)CCC3)CC1	0.724	> 100	–
CN1CCC(NS(=O)(=O)NC(=O)Nc2c3c(cc4c2CCC4)CCC3)CC1	0.979	> 100	–
CC(C)(O)c1coc(S(=O)(=O)NC(=O)Nc2ccccc2Cc2ccccc2)c1	> 50	> 100	–
CC(C)(O)c1coc(S(=O)(=O)NC(=O)Nc2ccccc2Oc2ccccc2)c1	> 50	> 100	–
CN1CCC(N(C)S(=O)(=O)NC(=O)Nc2cccc3c2NC(=O)C3)CC1	> 50	> 100	–
CN1CCC(n2cc(NS(=O)(=O)NC(=O)Nc3c4c(cc5c3CCC5)CCC4)cn2)CC1	2.99	> 100	–
CN1CCC(N(C)S(=O)(=O)NC(=O)Nc2c3c(cc4c2CCC4)CCC3)C1 (centres undefined)	0.122	> 100	–

Structure (SMILES)	IC50 [1] [µM]	CC50 [2] [µM]	also measured
CC(C)(O)c1coc(S(=O)(=O)NC(=O)Nc2ccccc2C(=O)N2CCOCC2)c1	> 50	> 100	–
O=C(Nc1c2c(cc3c1CCC3)CCC2)NS(=O)(=O)N1CCN2CCC1CC2	0.185	> 100	–
C=C(c1ccccc1)c1ccccc1NC(=O)NS(=O)(=O)c1cc(C(C)(C)O)co1	19.8	> 100	–
O=C(Nc1c2c(cc3c1CCC3)CCC2)NS(=O)(=O)Nc1cnn(C2CCOCC2)c1	0.139	> 100	–
CC(=O)N1CCC(NS(=O)(=O)NC(=O)Nc2c3c(cc4c2CCC4)CCC3)CC1	5.37	> 100	–
CN1CCC(N(C)S(=O)(=O)NC(=O)Nc2cccc3c2oc2ccccc23)CC1	> 50	> 100	–
O=C(Nc1c2c(cc3c1CCC3)CCC2)NS(=O)(=O)N1CCNC2(CC2)C1	2.03	> 100	–
O=C(Nc1c2c(cc3c1CCC3)CCC2)NS(=O)(=O)N1CCC(F)(F)CC1	1.12	> 100	–
Cc1ccc2cccc(NC(=O)NS(=O)(=O)N(C)C3CCN(C)CC3)c2n1	> 50	> 100	–
CN(c1ccncc1)S(=O)(=O)NC(=O)Nc1c2c(cc3c1CCC3)CCC2	4.43	> 100	–
CC(C)(O)c1coc(S(=O)(=O)NC(=O)Nc2ccccc2Sc2ccccc2)c1	35.1	> 100	–
CN1CCC(N(C)S(=O)(=O)NC(=O)Nc2cccc3c2C(=O)c2ccccc2-3)CC1	> 50	> 100	–
CN1CCC(N(C)S(=O)(=O)NC(=O)Nc2cccc3c2OCO3)CC1	> 50	> 100	–
CN1CCC(N(C)S(=O)(=O)NC(=O)Nc2ccccc2C(=O)c2ccccc2)CC1	18	> 100	–
CC(C)(O)c1coc(S(=O)(=O)NC(=O)Nc2ccccc2C(=O)c2ccccn2)c1	> 50	> 100	–
CN1CCC(N(C)S(=O)(=O)NC(=O)Nc2cc(C(C)(C)C)ccc2-c2ccc(C(C)(C)C)cc2)CC1	> 50	10.2	–
CN(C1CCOCC1)S(=O)(=O)NC(=O)Nc1c2c(cc3c1CCC3)CCC2	0.544	> 100	–
